Assay results: paper PMC11396972, “Synthesis of Hybrid Molecules with Imidazole-1,3,4-thiadiazole Core and Evaluation of Biological Activity on Trypanosoma cruzi and Leishmania donovani” (Molecules, 2024)

Experiments:
[1] = tested on: Trypanosoma cruzi epimastigotes (Y strain (TCII)); assay: Proliferation of T. cruzi epimastigotes, MTT test, single concentration; format: cell-based; conditions: 72 h incubation; for inhibition at 50 µM: Trypanosoma cruzi, 72 h, read-out: T. cruzi % Inhibition ± SD (antiproliferative activity); for T. cruzi % Inhibition ± SD (antiproliferative activity): 50 μM
Procedure: A drug-free control (negative control) was included and positive controls were Metronidazole (Mtz), Benznidazole (Bnz), Amphotericin B (Aph), and Nifurtimox (Nfx), (50 μM). […] Parasites were collected in the logarithmic phase of growth before the experiments. It was arranged in plates of 96 wells, 2 × 10^5 epimastigotes per well and incubated at 28 °C for 24 h. Subsequently, the compounds to be evaluated, dissolved in DMSO (0.1% final), were added at a single concentration of 50 μM. A drug-free control (negative control) was included, and benznidazole and nifurtimox were included as positive controls. […] Finally, the cells were lysed with DMSO and the plate was read in a spectrophotometer at 570 nm.

[2] = tested on: Leishmania donovani promastigotes (LD51 strain); assay: Proliferation of L. donovani promastigotes, MTT test, single concentration; format: cell-based; conditions: 72 h incubation, read-out: L. donovani % Inhibition ± SD (antiproliferative activity)
Procedure: A drug-free control (negative control) was included and positive controls were Metronidazole (Mtz), Benznidazole (Bnz), Amphotericin B (Aph), and Nifurtimox (Nfx), (50 μM). […] Parasites were collected in the logarithmic phase of growth before the experiments. It was arranged in plates of 96 wells, 4 × 10^5 promastigotes per well and incubated at room temperature °C for 24 h. Subsequently, the compounds to be evaluated, dissolved in DMSO (0.1% final), were added at a single concentration of 50 μM, a drug-free control (negative control) was included, and amphotericin B was used as leishmanicidal control. To select those compounds active on promastigotes, it was incubated for 72 h after and then MTT (5 mg/mL), dissolved in PBS, was added and incubated for 4 h in the dark. Finally, the cells were lysed with DMSO and the plate was read in a spectrophotometer at 570 nm.

[3] = tested on: Trypanosoma cruzi epimastigotes (Y strain (TCII)); assay: Estimation of IC50 on epimastigotes of T. cruzi, MTT test; format: cell-based; conditions: 72 h, eight concentrations 5–500 µM, triplicate
Procedure: (§1) Parasites were collected in the logarithmic phase of growth before the experiments. The test compounds, as well as the reference drugs, metronidazole, nifurtimox and amphotericin B, were previously dissolved in DMSO and then in LIT medium and added to the cultures at the required concentrations; the final DMSO concentration in cultures was 1% (v/v). Eight concentrations of each compound in the range 5–500 µM were tested and assayed in triplicate. Growth inhibition was assessed after 72 h incubation in the presence of the compounds by MTT (5 mg/mL), dissolved in PBS, and incubated for 4 h in the dark. Finally, the parasites were lysed with DMSO and the plate was read in a spectrophotometer at 570 nm.

[4] = tested on: Leishmania donovani promastigotes (LD51 strain); assay: Estimation of IC50 on promastigotes of L. donovani, MTT test; format: cell-based; conditions: 72 h, eight concentrations 5–500 µM, triplicate
Procedure: as §1

Vero cells = assay: Host cell toxicity assay, MTT; format: cell-based; conditions: for L. donovani (SI) selectivity index: Vero cells CC50 versus L. donovani IC50; for T. cruzi (SI) selectivity index: Vero cells CC50 versus T. cruzi IC50
Procedure: (§2) To determine the possible toxic effects of the compounds on the host cells, uninfected Vero cells, maintained in DMEM, BSF 10%, incubated at 37 °C in humidified 5% CO2, were counted in suspension in a Neubauer chamber and seeded at 2 × 10^4 cells/well in a 96-well plate. After 24 h compounds were added. […] A total of 5 mg/mL of MTT was added and incubated in darkness for 4 h. After this time, DMSO was added and the plate was read at 540 nm in a spectrophotometer Synergy HT (Biotek, Winooski, VT, USA).

[5] = Host cell toxicity assay, MTT; format: cell-based; conditions: African green monkey, Vero cells (uninfected); Vero cells, 48 h, MTT; read-out: CC50 (μM) cytotoxicity on Vero cells
Procedure: as §2

melting point	IC50 [3]	Structure (SMILES)	inhibition at 50 µM [1]	inhibition at 50 µM [2]	IC50 [4]	L. donovani (SI) selectivity index (Vero cells)	T. cruzi (SI) selectivity index (Vero cells)	CC50 at 48 h [5]	T. cruzi % Inhibition ± SD (antiproliferative activity) [1]
252 °C		COc1cc(-c2nnc(Nc3ccc(C(=O)OCCn4c([N+](=O)[O-])cnc4C)cc3)s2)cc(OC)c1OC [Compound 23, 2-(2-Methyl-5-nitro-1H-imidazol-1-yl)ethyl-4-{[5-(3,4,5-trimethoxyphenyl)-1,3,4-thiadiazol-2-yl]amino}benzoate]	20.3 ± 6.73%	12.7 ± 2.31%					
	180 ± 18.9 µM	Cc1ncc([N+](=O)[O-])n1CCO [Mtz, Metronidazole, reference compound]	12.2 ± 5.3%		50.3 ± 11.9 µM				
> 300 °C		Cc1ncc([N+](=O)[O-])n1CCOC(=O)c1ccc(Nc2nnc(-c3ccc(-c4ccccc4)cc3)s2)cc1 [Compound 22, 2-(2-Methyl-5-nitro-1H-imidazol-1-yl)ethyl-4-{[5-((1,1’-biphenyl)-4-yl)-1,3,4-thiadiazol-2-yl]amino}benzoate]	7 ± 2.28%	12.9 ± 2.08%					
	1.81 ± 0.45 µM	CC1CS(=O)(=O)CCN1/N=C/c1ccc([N+](=O)[O-])o1 (stereo not shown) [Nfx, Nifurtimox, reference compound]	83 ± 1.6%					> 90 µM	

Further lines, the molecule ahead of its results:

Structure (SMILES)	melting point	IC50 [3]	inhibition at 50 µM [1]	inhibition at 50 µM [2]	IC50 [4]	L. donovani (SI) selectivity index (Vero cells)	T. cruzi (SI) selectivity index (Vero cells)	CC50 at 48 h [5]	T. cruzi % Inhibition ± SD (antiproliferative activity) [1]
O=C(Cn1ccnc1[N+](=O)[O-])NCc1ccccc1 [Bnz, Benznidazole, reference compound]			45.4 ± 6.21%						
Cc1ncc([N+](=O)[O-])n1CCOC(=O)c1ccc(Nc2nnc(-c3cccc(Cl)c3)s2)cc1 [Compound 19, 2-(2-Methyl-5-nitro-1H-imidazol-1-yl)ethyl-4-{[5-(3-chlorophenyl)-1,3,4-thiadiazol-2-yl]amino}benzoate]	202 to 204 °C	56.3 ± 6.83 µM	~50%	31.8 ± 1.95%	59.7 ± 8.82 µM	>8.37	>8.87	> 500 µM	53.10 ± 3.68%
Cc1ncc([N+](=O)[O-])n1CCOC(=O)c1ccc(Nc2nnc(-c3ccc(Cl)cc3)s2)cc1 [Compound 20, 2-(2-Methyl-5-nitro-1H-imidazol-1-yl)ethyl-4-{[5-(4-chlorophenyl)-1,3,4-thiadiazol-yl]amino}benzoate]	242 to 244 °C	51.7 ± 6.59 µM	~50%	40.4 ± 4.18%	54.5 ± 8.51 µM	>9.17	>9.67	> 500 µM	49.37 ± 4.45%
Cc1ncc([N+](=O)[O-])n1CCOC(=O)c1ccc(Nc2nnc(-c3ccccc3)s2)cc1 [Compound 21, 2-(2-Methyl-5-nitro-1H-imidazol-1-yl)ethyl-4-[(5-phenyl-1,3,4-thiadiazol-2-yl)amino]benzoate]	240 to 242 °C	55.5 ± 7.2 µM	~50%	71.4 ± 5.28%	10.1 ± 2.21 µM	>49.65	>9.01	> 500 µM	58.35 ± 2.05%
Cc1ncc([N+](=O)[O-])n1CCOC(=O)c1ccc(Nc2nnc(-c3cccnc3)s2)cc1 [Compound 18, 2-(2-Methyl-5-nitro-1H-imidazol-1-yl)ethyl-4-[(5-(pyridin-3-yl)-1,3,4-thiadiazol-2-yl]amino)benzoate]	232 to 234 °C		17.4 ± 14.4%	10.1 ± 2.92%					
C[C@@H]1[C@H](O)[C@@H](C)/C=C/C=C/C=C/C=C/C=C/C=C/C=C/[C@H](O[C@@H]2O[C@H](C)[C@@H](O)[C@H](N)[C@@H]2O)C[C@@H]2O[C@](O)(C[C@@H](O)C[C@@H](O)[C@H](O)CC[C@@H](O)C[C@@H](O)CC(=O)O[C@H]1C)C[C@H](O)[C@H]2C(=O)O [Aph, Amphotericin B, reference compound]				62.4 ± 6.6%	0.33 ± 0.02 µM			> 250 µM	
